{"source": "paper PMC8224453", "about": "“A New PqsR Inverse Agonist Potentiates Tobramycin Efficacy to Eradicate Pseudomonas aeruginosa Biofilms” (Advanced Science, 2021)", "key": {"[1]": {"experiment": "Metabolic stability, rabbit liver S9", "type": "in vitro ADME", "settings": "pooled liver S9 fraction, Table S4, read-out: t1/2 rabbit liver S9", "description": "(§1) subtraction and plotted using GraphPad Prism 8.4.2 (GraphPad Software, San Diego, CA, […]\n(§2) USA). Solubility (S) was determined based on the First X value of AUC function using a […]\n(§3) For the evaluation of combined phase I and phase II metabolic stability, the compound (1 μM) was incubated with 1 mg/mL pooled liver S9 fraction from the respective species (Xenotech), […]\n(§4) 2 mM NADPH, 1 mM UDPGA, 10 mM MgCl2, 5 mM GSH and 0.1 mM PAPS at 37 °C for […]\n(§5) 0, 5, 15, 30 or 60 min. The metabolic stability of Testosterone (1 μM) and verapamil (1 μM) […]\n(§6) were determined in parallel to confirm the enzymatic activity of the S9 fraction. The […]\n(§7) incubation was stopped by precipitation of S9 enzymes with 2 volumes of cold acetonitrile […]\n(§8) containing internal standard (750 nM Diphenhydramine). Samples were stored on ice for 10 […]\n(§9) min and precipitated protein was removed by centrifugation (10 min, 4 °C, 17,000 g).\n(§10) Concentration of the remaining test compound at the different time points was analyzed by […]\n(§11) LC-MS/MS (TSQ Quantum Access MAX, Thermo Fisher, Dreieich, Germany) and used to […]\n(§12) determine half-life (t1/2). Stability of compound 4 in further S9 fractions are summarized in […]\n(§13) Table S4. Metabolic stability studies in various S9 fractions. […]\n(§14) guinea pig liver S9 92.5 ± 5.4\n(§15) 5.6. Permeability studies\n(§16) Permeability of compound 4 and 17 was assessed in vitro with Calu-3 HTB-55 cell line (ATCC). […]"}, "P. aeruginosa NH57388A": {"system": "P. aeruginosa NH57388A", "experiment": "Murine mucoid lung infection model, target engagement", "type": "in vivo, Pseudomonas aeruginosa", "description": "We, therefore, decided to make use of a murine sub‐chronic infection model with a mucoid infection phenotype specifically enabling to assess the on‐target activity of QSIs. […] Animals were immediately treated with QSI 4 co‐administered using methyl cellulose (dose = 5 mg kg^−1) or vehicle (control), followed by further treatments at 24 and 48 h post‐infection. The lungs were harvested at 72 h time point, homogenized and extracted using ethyl acetate. As a readout for target engagement, we quantified the signal molecule levels of HHQ, PQS, and HQNO as proximal biomarkers for the activity of the bacterial target. […] In addition, we measured bacterial burden in form of CFU count as a treatment endpoint (Section S6.3, Supporting Information). […] Moreover, CFU was reduced by four‐fold upon treatment with QSI 4 (see Table S11 in the Supporting Information). […] However, considering the impact of the host immune system on bacterial clearance and the action of some PqsR‐controlled virulence factors toward immune‐system evasion (biofilm formation, pyocyanin production, elastase LasB expression), an indirect effect on the bacterial load in the lungs is plausible. However, it has to be stated that this effect is only minor compared to typical 2‐ to 4‐log unit reductions achieved by early antibiotic treatment.^[ ^31 ^]\n6.3. Design of in vivo Target Engagement Study\nGeneral. Mouse experiments were approved by the Landesamt für Soziales, Gesundheit und Verbraucherschutz of the State of Saarland in accordance with the national guidelines for animal treatment on August, 17th, 2017 (22/2017). The IVC unit was located within a biosafety level 2 laboratory and mice were allowed to acclimatize to their environment for at least seven days prior to the experiment. Throughout the experiment, the mice had access to water and food ad libitum.\nBackground studies were performed in order to generate typical mean and standard deviation values for biomarkers of the control group. Sample size was calculated using BiAS.\n(Software Version 11.08) from these values with alpha = 0.05 and P = 0.8 for biomarker reduction of 80% resulting in a sample size of ten mice or higher for a two-sample t-test.\nPrimary study. Ten-week old female C57BL/6N mice were housed in an individually ventilated-cage unit with ten mice per cage and twenty mice in total. One group (from one cage) was treated with compound 4, while the other group received a sham treatment with vehicle. Mice were not randomized, and no blinding was applied.\nFor the infection, each mouse was anesthetized intraperitoneally with 2.025 mg of ketaminhydrochloride (Ursotamin, Serumwerk Bernburg, Germany) and 0.12 mg of xylazinhydrochloride (Xylazin, WDF, Serumwerk Bernburg). Lidocainhydrochloride (Xylocain; Aspen Pharma, Ireland) was used for local anesthesia of the epiglottis before endotracheal intubation with a flexible cannula and intra-tracheal application of the inoculum […]\nApplication of inoculum (start of infection, 0 h) using 20 µL viable P. aeruginosa NH57388A culture supplemented with sodium alginate (22 mg/mL, Sigma). These were mixed with 20 µL of either compound 4 (5 mg/kg BW suspended in 0.1% methylcellulose) or vehicle (0.1% methylcellulose) to conduct the first treatment simultaneously to infection via intra-tracheal application assisted by endotracheal intubation using a flexible cannula. Bacterial load was determined to be 5∙10^7 CFU per mouse by plating serial dilutions on LB-agar plates.\nSubsequent treatments were performed at 24 and 48 h post infection with 20 µL of compound 4 (5 mg/kg BW suspended in 0.5% methylcellulose, 0.2 vol-% Tween-80) or vehicle (0.5% methylcellulose, 0.2 vol-% Tween 80) were administered intra-tracheally following the same procedure as the infection. 72 h post infection mice were euthanized, lungs were removed aseptically and homogenized in 500 µL sterile phosphate buffered saline over the course of […]\n72 h. Again, bacterial load was determined by plating serial dilutions on LB-agar plates. The […]"}, "[2]": {"experiment": "Metabolic stability, guinea pig liver S9", "type": "in vitro ADME", "settings": "pooled liver S9 fraction, Table S4, read-out: t1/2 guinea pig liver S9", "description": "as §1, §2, §3, §4, §5, §6, §7, §8, §9, §10, §11, §12, §13, §14, §15, §16"}, "[3]": {"settings": "treated group, n = 7, 72 h, below LLOQ"}}}
{"smiles": "FC(F)(F)c1cc(NCc2cn(-c3ccc(Oc4ccccc4)cc3)nn2)ccn1", "note": "[Compound 4]", "values": [{"measurement": "half-life at 1 μM", "setting": "[1]", "value": "20 ± 10", "unit": "min"}, {"measurement": "reduction of CFU / bacterial load upon treatment", "setting": "P. aeruginosa NH57388A; mice, 5 mg kg^−1, 72 h", "value": "four‐fold"}, {"measurement": "auto‐inducer levels (HHQ, PQS, HQNO) in infected lungs", "setting": "P. aeruginosa NH57388A; mice, 5 mg kg^−1, 72 h, p < 0.05", "value": "reduced significantly"}, {"measurement": "CFU/mouse Mean", "setting": "P. aeruginosa NH57388A; treated group, n = 7, 72 h", "value": 173600, "unit": "CFU/mouse"}, {"measurement": "CFU/mouse Median", "setting": "P. aeruginosa NH57388A; treated group, n = 7, 72 h", "value": 147500, "unit": "CFU/mouse"}, {"measurement": "HHQ Mean", "setting": "P. aeruginosa NH57388A; treated group, n = 7, 72 h", "value": 1.7, "unit": "pmol"}, {"measurement": "HHQ Median", "setting": "P. aeruginosa NH57388A; treated group, n = 7, 72 h", "value": 0.9, "unit": "pmol"}, {"measurement": "HQNO Mean", "setting": "P. aeruginosa NH57388A; treated group, n = 7, 72 h", "value": 5.2, "unit": "pmol"}, {"measurement": "HQNO Median", "setting": "P. aeruginosa NH57388A; treated group, n = 7, 72 h", "value": 2.3, "unit": "pmol"}, {"measurement": "PQS Mean", "setting": "P. aeruginosa NH57388A; [3]", "value": 0.3, "unit": "pmol"}, {"measurement": "PQS Median", "setting": "P. aeruginosa NH57388A; [3]", "value": 0.2, "unit": "pmol"}, {"measurement": "Reduction through treatment, CFU/mouse", "setting": "P. aeruginosa NH57388A; treated vs untreated means", "value": 77.3, "unit": "%"}, {"measurement": "Reduction through treatment, HHQ", "setting": "P. aeruginosa NH57388A; treated vs untreated means", "value": 99.3, "unit": "%"}, {"measurement": "Reduction through treatment, HQNO", "setting": "P. aeruginosa NH57388A; treated vs untreated means", "value": 98.3, "unit": "%"}, {"measurement": "Reduction through treatment, PQS", "setting": "P. aeruginosa NH57388A; treated vs untreated means", "value": 99.1, "unit": "%"}, {"measurement": "half-life at 1 μM", "setting": "[2]", "value": "92.5 ± 5.4", "unit": "min"}]}
